The subject of one data set is HFF cell. The data set is described as follows: HFF cell viability by MTS assay. It is filed as cell-based, human. The conditions noted are these: at the concentrations tested. As to the method: (§1) Readouts of host cell viability were used to quantify the dose-response of tartrolon D/E against T. gondii. Human foreskin fibroblast (HFF) cells, after having been infected by T. gondii for 24 hours, were treated with dilutions of tartrolon D/E that have been purified as in Example 2, or DMSO (control) for 72 hours. Host cell viability was then measured by MTS assay (CellTiter 96® AQueous One Solution Cell Proliferation Assay, Promega). The effective concentration at which 50% of the host cells survived (EC50) was about 5 nM (FIG. 4A).
At the concentrations tested, tartrolon D/E had no effect on HFF cell viability as measured by MTS assay, indicating likely safety for in vivo administration. […] The aberration in the parasite morphology, stark when compared to untreated cell infection shown in the left columns of FIGS. 4B and 4C, provides direct evidence of irreversible inhibition and killing of the target parasite by compounds of the invention.
(In general: Tetrazolium assays rely on reduction of a dye to a coloured formazan, in cell work by metabolically active cells.)

The next data set concerns Plasmodium berghei. The data set is described as follows: Plasmodium berghei-luciferase infection in mice, IVIS imaging. It counts as in vivo. As to conditions: IVIS image FIG. 14B, 1 of the 4 control mice. As to the method:
Mice were infected with Plasmodium berghei expressing luciferase. 48 hours post infection mice were treated with tartrolon D/E (specifically, D2) initially solubilized in 2% methylcellulose and 0.5% Tween80 by intraperitoneal injection for 5 days, once per day. Control mice were treated with vehicle alone. Seven days after infection, mice were given luciferase substrate (150 mg/kg D-luciferin Potassium salt in PBS (Goldbio)) and imaged in an IVIS Lumina II to quantify level of infection.

The subject of another data set is Caco2 cell. The data set is described as follows: Caco2 cell viability. It is filed as cell-based. The conditions noted are these: concentrations up to 500 nM. As to the method:
(§2) The effect of Tartrolon D/E on Cryptosporidium proliferation was evaluated by measuring host cell ATP levels (CellTiter-Glo® Luminescent Cell Viability Assay, Promega). Caco2 cells, having been infected with 2×10^5 C. parvum oocysts for 7 hours, were treated with dilutions of tartrolon D/E or DMSO (control) and cellular ATP levels were measured at the 48-hour time point post-infection.
(§3) The morphology of treated parasites (FIG. 6B) was similar to that seen with T. gondii, in which the vacuole contained intact nuclei but no intact merozoites.

Another data set deals with T. gondii. The data set is described as follows: MTS host cell viability readout of T. gondii-infected HFF cells. It is filed as cell-based. As to conditions: Toxoplasma gondii, read-out: effective concentration at which 50% of the host cells survived (EC50). How it is done: as §1
Data set [1] deals with apicomplexan parasites tested. The data set is described as follows: Summary of in vitro EC50 against the apicomplexan parasites tested. The conditions noted are these: general range. It counts as cell-based. From the text: For therapeutic purposes, the compounds of the invention may be formulated into a pharmaceutical composition, by mixing a therapeutically effective amount of the compound(s) of the invention with a pharmaceutically acceptable excipient, carrier, or diluent, and optionally in combination with one or more additional active agents, e.g., a second anti-parasitic agent. […] With an EC50 value as low as the picomolar to nanomolar level provides further confidence that the active ingredients, once administered in vivo, would likely achieve the expected anti-parasitic effects. According to an aspect of the present invention, tartrolon D and/or tartrolon E can be used as a therapeutic for treatment or prevention of human and animal diseases caused by various protozoan parasites.

Another data set relates to Toxoplasma gondii. The data set is described as follows: Immunofluorescence assay (anti-SAG1) of T. gondii-infected HFF cells. The conditions noted are these: T. gondii in HFF cells, FIG. 4B/4C. It counts as cell-based. As to the method: FIGS. 2B and 2C show results for experiments that were conducted as for FIG. 2A, except that 24 hours after addition of the fractions, the infected HFF cells were processed for immunofluorescence assays. Briefly, infected and treated HFF cells that had been grown on coverslips in 6-well plates were fixed with methanol and parasites were detected using antibody to the SAG1 T. gondii surface antigen that was then detected with a red-fluorescence tagged secondary antibody. Host nuclei were stained with blue fluorescent marker DAPI (4′,6-diamidino-2-phenylindole). Host nuclei were clearly visible (blue) in all cell populations in both FIGS. 2B and 2C. Consistent with the trypan blue results, extensive red fluorescence was visible in cells treated with the control (DMSO) in FIG. 2C, meaning these cells were highly infected with the parasites.

Data set [2] relates to Bovine Turbinate (BT) cells (ATCC #CRL-1390). The data set is described as follows: Toxicity for mammalian cells, CellTiter Glo cell viability assay. It is filed as cell-based. The conditions noted are these: 24 hours. As to the method: Toxicity of the compounds of the invention for mammalian cells was determined. Bovine Turbinate (BT) cells (ATCC #CRL-1390) are a primary cell line (not a transformed cancer cell line) and were used to provide a preliminary evaluation of the toxicity of tartrolon D/E for mammalian cells. Briefly, BT cells were cultured in the presence of increasing starting concentrations of Tartrolon D/E for 24 hours. Cell proliferation was measured using CellTiter Glo Cell Viability Assay (Promega) and the data was analyzed with GraphPad Prism.
For orientation: ATP-based viability assays read luminescence as a measure of living cells.

The test system of data set [3] is three human tumor cell lines. As to conditions: cited from earlier work.
Data set [4] relates to Cryptosporidium parvum. The data set is described as follows: Morphology of C. parvum parasites after treatment (immunofluorescence). It is filed as cell-based. The conditions noted are these: 100 nM, 9 hours (FIG. 6B).
Text: Insets (upper right in each image) are enlargements of boxed regions (dashes). Red: Rabbit α gp15 detected with Alexafluor 594-conjugated goat anti-rabbit IgG secondary antibody; blue: DAPI; scale=20 μm; insets=5 μm.
as §3

The next data set relates to P. falciparum strains. The data set is described as follows: 3H hypoxanthine incorporation assay of P. falciparum strains in human red blood cells. It counts as cell-based, Plasmodium falciparum. As to the method: The potency of the compounds of the invention against multi-drug resistant P. falciparum strains was tested. Parasites were cultured in 96-well plates in human red blood cells at 0.5% initial parasitemia for 72 hours in the presence of dilutions of tartrolon D/E (specifically, D2 as the starting material in FIG. 11A), purified tartrolon E (FIG. 11C), dihydroartemisinin (DHA, as a positive control in FIG. 11B), or DMSO (as a negative control). Parasites proliferation was then determined by ^3H hypoxanthine incorporation.
Specifically, parasitized red blood cells (pRBCs) were grown in 0.5% Albumax I (Thermo Fisher Scientific). Assays were set up in 96-well plates at 0.5% initial parasitemia and 0.5% hematocrit. Parasites were exposed to various concentrations of Tartrolon D or E and dihydroartemisinin (DHA) for 48 hours and then pulsed with 0.5 microcuries of tritium-labeled hypoxanthine Moravek (MT-700) for another 24 hours. At the end of 72 hours, assay plates were processed through an Inotech cell harvester and collected on Inotech glass fiber filters. Filters were transferred to Omniplate-96 cassettes (Perkin Elmer) and dried overnight at room temperature. About […] of Microscint-O scintillation cocktail (Perkin Elmer) was added to each well. Each well was counted for 2 minutes on a Packard Topcount scintillation counter. The uptake of radiolabeled hypoxanthine by compound-treated pRBCs was compared relative to uptake by DMSO solvent-treated controls. […] The starting material used as the active reagent in FIG. 11C was tartrolon E, purified as follows: extract from the bacterial pellet of the Teredinibacter turnerae T7901 was purified by reversed phase HPLC using diode array detection. A C18 column (Phenomenex CHO-7878, 100×10 mm) was employed with an isocratic mobile phase (85% acetontrile in water, 3.5 mL/min) to yield tartrolon E (4.7 mg, retention time 8 min).

Data set [5] deals with Cryptosporidium parvum. The data set is described as follows: Host cell ATP assay (CellTiter-Glo) of C. parvum-infected Caco2 cells. It counts as cell-based. As to conditions: Caco-2, host cell ATP at 48 h post-infection, read-out: EC50 against C. parvum. How it is done: as §2
A further data set deals with Babesia bovis. The data set is described as follows: SYBR green-based growth suppression assay in bovine red blood cells. It counts as cell-based. As to the method:
Purified tartrolon D/E (with starting materials being either D1 or D2) was tested against another apicomplexan pathogen, Babesia bovis, which proliferates in bovine red blood cells. Growth suppression of B. bovis was quantified using a modified SybrGreen-based assay (Molecular Probes, Life Sciences Technology). SYBR green is an asymmetrical cyanine dye that is used as a nucleic acid stain. In this assay, parasite replication in red blood cells is measured directly by the incorporation of SYBR green into parasite DNA. Tartrolon D/E concentrations ranging from 0.001 to 10,000 nM were tested on infected cells and DMSO (vehicle) was run in parallel as a negative control.

The test system of the next data set is Toxoplasma gondii ME49. The data set is described as follows: Bright-Glo luciferase assay of parasite proliferation in HFF cells. It counts as cell-based. As to conditions: Toxoplasma gondii, HFF, read-out: EC50 against T. gondii ME49, added 8 h after infection, 24 hours, 3 independent experiments. How it is done:
Human foreskin fibroblast (HFF) cells were established in 96-well plates, and then infected with ME49 parasites engineered to express green fluorescent protein and firefly luciferase (2.5 to 5×10^5/well). Eight hours after infection, dilutions of Tartrolon D1 isolated as in Example 3, Tartrolon D2 isolated as in Example 4, or vehicle (DMSO) at equivalent concentrations were added to infected cells and the plates incubated for 24 hours (37° C., 5% CO2). Proliferation of the parasites was then measured using Bright-Glo luciferase assay system (available from Promega). Samples were run in triplicate and three independent biological replicates were conducted. The log 10 [Tartrolon D] versus percent inhibition of parasite proliferation was analyzed using the four parameter variable slope analysis in Graphpad Prism.

For a further data set, the system named is C. parvum. The data set is described as follows: Neonatal mouse model of C. parvum infection, histological scoring. It is filed as in vivo, Cryptosporidium parvum. The conditions noted are these: neonatal mice, 2 mg/kg/dose b.i.d. for 4 days, histological score. As to the method: To determine if tartrolon D/E would be effective in vivo, the purified compound(s) of the invention was tested in a neonatal mouse model of C. parvum infection (Schaefer D A et al. (2000) Infect Immun 68(5):2608-261). Eight-day old neonatal mice were infected with C. parvum oocysts (50 times the ID50) and treated with purified tartrolon D/E (specifically, D1) or vehicle as a starting material for 4 days at 2 mg/kg/dose (b.i.d). At the end of the study period, mice were sacrificed and histological sections of jejunum, ileum, colon and caecum were examined. Infection in each section was scored by an observer blinded as to the sample identity.

Consider 3 compounds from patent publication US11135231B2, “Methods and compositions for prevention and treatment of Apicomplexan infections” (Tufts Medical Center, Inc., priority 2016, dated 2021).

`C[C@@H]1C(=O)C[C@@H](O)CC/C=C/C=C\CC[C@H](C)OC(=O)C(O)[C@]2(O)O[C@@H](CC[C@H]2C)[C@H](C)C(=O)C[C@@H](O)CC/C=C/C=C\CC[C@H](C)OC(=O)C(O)[C@]2(O)O[C@H]1CC[C@H]2C` (stereo partly drawn) [Tartrolon D/E]: the “effect on HFF cell viability” value in the data set with HFF cell was “no effect”. In the data set with Plasmodium berghei, the “treated mice with significant areas with no parasites” value was 4 of the 5. In addition, in the data set with Caco2 cell, the “effect on Caco2 cell viability” value is “no effect”. Moreover, the figures for the EC50 (with T. gondii; in data set [1]) were ~5000 pM and 100 to 16000 pM, respectively. Moreover, the parasite morphology result in the data set on Toxoplasma gondii was “aberrant morphology”. In addition, the “toxic dose at which 50% of the cells were killed” value in [2] worked out at 1.14 µM.

For the compound `C[C@@H]1C(=O)C[C@@H](O)CC/C=C/C=C\CC[C@H](C)OC(=O)C(O)[C@]2(O)O[C@@H](CC[C@H]2C)[C@H](C)C(=O)C[C@@H](O)CC/C=C/C=C\CC[C@H](C)OC(=O)C(O)[C@]2(O)O[C@H]1CC[C@H]2C` (stereo partly drawn) [Tartrolon D, tartrolon D], the cytotoxic activity result in data set [3] was “strong cytotoxic activity”. Also, the “morphology of treated parasites” value with Cryptosporidium parvum [4] is “most parasites did not progress past the single cell stage”. For the same compound, the EC50 was 110 pM in the data set on P. falciparum strains (Plasmodium falciparum, 3D7, Erythrocyte, parasite line 3D7); 280 pM in the data set with P. falciparum strains (Plasmodium falciparum, DD2, Erythrocyte, parasite line Dd2); 180 pM with P. falciparum strains (Plasmodium falciparum, Erythrocyte, parasite line 7G8); 260 pM in the data set with P. falciparum strains (Plasmodium falciparum, Erythrocyte, parasite line 2012 Indian Isolate (Goa)); 140 pM in the data set with P. falciparum strains (Plasmodium falciparum, Erythrocyte, parasite line D6); 310 pM in the data set on P. falciparum strains (Plasmodium falciparum, Erythrocyte, parasite line V1S). Further, the EC50 was 130 pM with P. falciparum strains (Plasmodium falciparum, HB3, Erythrocyte, parasite line HB3); 200 pM with P. falciparum strains (Plasmodium falciparum, NF54, Erythrocyte, parasite line NF54); 160 pM in the data set with P. falciparum strains (Plasmodium falciparum, TM90C2A, Erythrocyte, parasite line TM90C2A); 190 pM with P. falciparum strains (parasite line 3D7); ~12000 pM in the data set on Cryptosporidium parvum [5].

As for `C[C@@H]1C(=O)C[C@@H](O)CC/C=C/C=C\CC[C@H](C)OC(=O)C(O)[C@]2(O)O[C@@H](CC[C@H]2C)[C@H](C)C(=O)C[C@@H](O)CC/C=C/C=C\CC[C@H](C)OC(=O)C(O)[C@]2(O)O[C@H]1CC[C@H]2C` (stereo partly drawn) [Tartrolon D1, tartrolon D], in the data set with Babesia bovis, the “concentration at which parasites did not incorporate any more fluorescence than uninfected red blood cells” value is listed as “more than 20 nM”. Besides, the EC50 is 11200 pM in the data set on Babesia bovis (Babesia bovis, Erythrocyte, SYBR green fluorescence, read-out: EC50 against B. bovis) and 3400 pM with Toxoplasma gondii ME49. Also, the inhibition of infection result in the data set with C. parvum is listed as “about 50%”.
